# Calls of active or inactive are those of the source. No cut-off for these calls is given here.
# Molecular target: Human immunodeficiency virus type 1 integrase (Human immunodeficiency virus 1) (UniProt Q7ZJM1)
# Assay: Antiviral activity as inhibition of HIV integrase; Inactive
# Sequence of Human immunodeficiency virus type 1 integrase (Human immunodeficiency virus 1) (Q7ZJM1 as listed by the source): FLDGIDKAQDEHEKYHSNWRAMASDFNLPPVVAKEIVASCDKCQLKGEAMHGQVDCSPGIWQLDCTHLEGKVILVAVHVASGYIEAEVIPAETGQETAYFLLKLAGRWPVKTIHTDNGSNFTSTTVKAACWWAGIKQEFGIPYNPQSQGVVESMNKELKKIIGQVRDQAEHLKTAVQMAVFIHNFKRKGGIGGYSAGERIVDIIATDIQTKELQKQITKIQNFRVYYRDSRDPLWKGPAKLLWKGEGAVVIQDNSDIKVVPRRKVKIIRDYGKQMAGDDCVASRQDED
row,Activity,Structure (SMILES)
1,inactive,O=c1c(O)c(-c2ccc(O)cc2)oc2cc(O)cc(O)c12

# Molecular target: Human immunodeficiency virus type 1 protease (Human immunodeficiency virus 1) (UniProt Q72874)
# Assay: Antiviral activity as inhibition of HIV protease; Active
row,Activity,Structure (SMILES)
1,Active,CCCCCCc1cc2c(cc1O)CC(=O)C(C(c1ccccc1)C1COc3cc(O)c(CCCCCC)c(O)c3C1)=C2O (centres undefined)
2,Active,O=C1C2=C(C(=O)c3ccccc31)C(O)(S(=O)(=O)O)C(O)(S(=O)(=O)O)C1N=CC=CC21 (centres undefined)

# Molecular target: Human immunodeficiency virus type 1 protease (Human immunodeficiency virus 1) (UniProt Q72874)
# Assay: Antiviral activity as inhibition of HIV protease; Inactive
row,Activity,Structure (SMILES)
1,inactive,O=C(O)C1Cc2cc3c(cc2C(O)C1CO)OCO3 (centres undefined)

# System: Human immunodeficiency virus 1
# Assay: HIV antiviral activity
# Format: functional
row,Structure (SMILES),Average activity
1,CCC(F)CC,56
2,CCC(Cl)CC,56
3,C=C/C=C\C=C\[PH](=O)/C=C/C (centres undefined),51

# Continued, values first:
row,Average activity,Structure (SMILES)
1,64,CC(=O)NC(=O)N(C)C1CCC(N=[N+]=[N-])O1 (centres undefined)
2,37,C=C/C(=C\C)C(=O)N/C(C)=C/C
3,60,C=C/C(=C\C)NC(C)=O
4,60,C=CC(=C\C)/N=C(\C)S
5,51,C=C/C=C\C=C\C(=O)/C=C/C
6,56,CCC1OC1C (centres undefined)
7,51,C=C/C=C/C=C/S(=O)(=O)/C=C/C
8,51,C=C/C=C\C=C\[S+]([O-])/C=C/C (centres undefined)
9,56,CCC(I)CC

# Molecular target: Human immunodeficiency virus type 1 reverse transcriptase (Human immunodeficiency virus 1) (UniProt Q72547)
# Assay: Antiviral activity as inhibition of HIV reverse transcriptase; Inactive
row,Activity,Structure (SMILES)
1,inactive,CC1C(=O)NC(=O)N(COCCO)C1Sc1cccc(O)c1 (centres undefined)

# Molecular target: Human immunodeficiency virus type 1 reverse transcriptase (Human immunodeficiency virus 1) (UniProt Q72547)
# Assay: Antiviral activity as inhibition of HIV reverse transcriptase; Active
row,Activity,Structure (SMILES)
1,Active,CCN1c2ccccc2C2NC=C(C)C2c2ccc(OC)cc21 (centres undefined)
2,Active,CCOCN1C(=O)NC(=O)C(C)C1Sc1ccccc1 (centres undefined)
